Assay [1] concerns Platelet Rich Plasma (PRP). Particulars: 2.9 mM AgNO3, n = 8. The procedure: (§1) The hemostatic compositions of the invention were evaluated in two different systems. In one system, clotting time of recalcified, citrated whole blood in the presence of the hemostatic composition was determined using a SONOCLOT Coagulation Analyzer (Sienco Inc., Wheat Ridge Colo.). […] Results were expressed as clotting time in seconds. In a second system, the hemostatic composition was dried on a cellulose matrix (filter paper), and 7 μl aliquot of fresh blood or recalcified citrated whole blood was placed in the cellulose matrix; resulting in the spreading (perfusion) of the applied blood as an enlarging disk. Upon clotting or reduced perfusion, the further spread of the blood ceases. The surface area of the spread blood in mm^2 is used as an indication of the clotting rate of the blood. Results are expressed as mean±standard deviation. The number of samples run is indicated at the top of each data column.
(§2) This study was undertaken using platelet-rich and platelet-poor plasma to simulate an individual with normal and reduced platelet levels.

In assay [2] the test system is Platelet Poor Plasma (PPP). The conditions noted are these: 2.9 mM AgNO3, n = 8. Here is the method: as §1, §2
In assay [3] the test system is citrated blood anticoagulated with heparin. The experiment in a line: SONOCLOT clotting (recalcification) time of heparinized citrated blood. It is filed as biochemical. The procedure: (§3) Results were expressed as clotting time in seconds. […] Results are expressed as mean±standard deviation.
(§4) Silver (I) ion was provided as silver nitrate, 5% stock solution. It was diluted 100 fold to 0.05%, or in some cases to 0.01% in the clotting studies. In perfusion studies, a 10 μl aliquot of the solution was applied to the filter paper then dried.
Collagen was from Sigma Chemical Co. In the clotting time studies, the final concentration of collagen was 0.1-0.2%. Heparinase was from Haemoscope Corp. and used at a final concentration of 1 U/mL.
Recalcification time was measured.

Assay [4] relates to recalcified, citrated whole blood. The experiment in a line: Blood perfusion (spread of blood disk) on filter paper impregnated with the composition. Here is the method: as §3, §4
The size of the blood disk on the paper was measured.

Assay [5] shares this test system. The experiment in a line: SONOCLOT clotting time of recalcified, citrated whole blood. Format: biochemical. Here is the method:
In such studies, anti-coagulated, citrated whole blood is recalcified to initiate the clotting process in a device which sensitively monitors the formation of the clot. Studies have been expanded from whole blood to include plasma.
as §3, §4
Collagen was from Sigma Chemical Co. […] Heparinase was from Haemoscope Corp. and used at a final concentration of 1 U/mL.

Setting [6] is: Study I, filter paper impregnated with 5% AgNO3, 2% collagen or the combination as labelled, n = 13.
[7] abbreviates: Study II, filter paper impregnated with 5% AgNO3, 2% collagen or the combination as labelled, n = 5.
Setting [8] is: final concentration in blood: 1% collagen, 0.6 mM AgNO3 or the combination as labelled, n = 41.
[9] abbreviates: thrombin 0.025 U/mL final, silver ion 2.9 mM final, n = 8.

Take `O=[N+]([O-])[O-].[Ag+]` [silver(I), silver nitrate]: the Clotting time in assay [1] came out at 83 ± 29 s; in assay [2] it was 128 ± 32 s; in assay [3] (heparinized blood, without silver 1930 seconds) it was 872 s; in assay [5] (setting [8]) it was 220 ± 50 s; in assay [5] (non-heparinized blood, without silver 217 seconds), 81 s; in assay [5] (normal blood, 2.9 mM AgNO3, n = 8) it was 109 ± 20 s. Besides, the Clotting time in assay [5] (recalcified citrated whole blood, heparin not given, silver nitrate 0.05% (in some cases 0.01%), heparinase 1 U/mL, n = 5) is 94 ± 35 s; in assay [5] (second study, without silver 588 seconds), 168 s; in assay [5] (setting [9]), 91 ± 14 s. Further, the “clotting time (FIG. 4, C and D)” value in assay [3] (0.25 U/ml heparin, 0.05% or 0.3% silver (I) ion, absence of collagen) is listed as “prolonged clotting time”. The “physical characteristics of the clot (clot strength), SONOCLOT tracing” value in assay [3] (heparinized whole blood) is on record as “stronger clot”. For the same compound, the Perfusion in assay [4] (setting [6]) was determined as 18 ± 4 mm; in assay [4] (Study II, filter paper impregnated with 1% AgNO3, n = 5), 42 ± 18 mm; in assay [4] (setting [7]) it was 17 ± 2 mm. Also, the “clot strength, SONOCLOT tracing” value in assay [5] (non-heparinized blood) is “the clot is stronger”; in assay [5] (second study), “stronger clot”.
Turning to collagen, the Perfusion came out at 35 ± 23 mm in assay [4] (setting [6]) and 28 ± 10 mm in assay [4] (setting [7]). Besides, the Clotting time in assay [5] (setting [8]) came to 264 ± 37 s.
Consider heparin [reference compound], for which the Clotting time in assay [3] (citrated blood with heparin 2 U/mL, recalcified, silver nitrate 0.05% (in some cases 0.01%), heparinase 1 U/mL, n = 5) turned out to be 1930 ± 83 s.
Turning to thrombin, the Clotting time in assay [5] (setting [9]) is 156 ± 42 s.
